Test systems include UACC-257 melanoma; NCI-H460 lung; SF-295 CNS; OVCAR-3 ovarian; A498 renal; SF-268 CNS; A549 NSCLC; HOP-92 NSCLC; SNB-19 CNS.
Common to all, as to assay: NCI-60 cell line screen, 48 h

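Compound exposure: 48 hours, 5 concentrations, 96-well plates. The concentration for full growth arrest is given as TGI.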 Where only a bound is given, the exact number is not on record here.

For `O=C(Nc1ccccc1)Oc1ccccc1C1CCCCC1`, the TGI with UACC-257 melanoma was 40.2 µM; in the test on NCI-H460 lung it was 60 µM; in the test with SF-295 CNS, 51.2 µM; in the test on OVCAR-3 ovarian, 34.7 µM; in the test on A498 renal, more than 100 µM; in the test with SF-268 CNS it was more than 100 µM. Besides, the TGI with A549 NSCLC is 88.5 µM; in the test on HOP-92 NSCLC, 31.3 µM; in the test on SNB-19 CNS, more than 100 µM.

`CC(=O)OCC1OC(OC(C)=O)C(NC#N)C(OC(C)=O)C1OC(C)=O` (stereo not given): the TGI in the test with NCI-H460 lung, in the test with SF-295 CNS, in the test on OVCAR-3 ovarian, in the test on A498 renal, in the test with SF-268 CNS and in the test on A549 NSCLC was more than 100 µM in each case. Also, the TGI in the test on HOP-92 NSCLC and with SNB-19 CNS was more than 100 µM in each case.

As for `NC(=O)NC(=O)C1CCC(=O)N1S(=O)(=O)c1ccc(Cl)cc1` (stereo not given), the TGI with UACC-257 melanoma, with NCI-H460 lung, in the test with SF-295 CNS, in the test on OVCAR-3 ovarian, with SF-268 CNS and in the test with A549 NSCLC was more than 100 µM each time. The TGI with HOP-92 NSCLC and in the test on SNB-19 CNS was more than 100 µM throughout.

`CCOC(=O)C1C(=O)C(=O)N2CCc3c([nH]c4ccccc34)C12` (stereo not given): the TGI with SF-295 CNS, in the test on OVCAR-3 ovarian, with A498 renal, with SF-268 CNS, with A549 NSCLC and with HOP-92 NSCLC was more than 100 µM throughout. Moreover, the TGI in the test on SNB-19 CNS was more than 100 µM.

For `Cc1nc(-c2cccnc2)sc1C(=O)/C=C/c1ccc(Cl)cc1Cl`, the TGI in the test on UACC-257 melanoma, in the test on NCI-H460 lung, in the test on SF-295 CNS, in the test on OVCAR-3 ovarian, in the test on A498 renal and in the test with SF-268 CNS was more than 100 µM each time. Moreover, the TGI in the test on A549 NSCLC and in the test with HOP-92 NSCLC was more than 100 µM throughout.

On to `COC(=O)N/N=C(\c1nc2ccc(Cl)cc2[nH]c1=O)C(O)c1ccc([N+](=O)[O-])cc1` (stereo not given), for which the TGI in the test with UACC-257 melanoma, with NCI-H460 lung, in the test on SF-295 CNS, in the test with OVCAR-3 ovarian, in the test with SF-268 CNS and in the test on A549 NSCLC was more than 100 µM each time. For the same compound, the TGI in the test on HOP-92 NSCLC and in the test on SNB-19 CNS was more than 100 µM each time.

As to `CN1C/C(=C\c2ccco2)c2nc(N)nc(-c3ccco3)c2C1`, the TGI in the test with UACC-257 melanoma, in the test with NCI-H460 lung, in the test with SF-295 CNS, with OVCAR-3 ovarian, with A498 renal and in the test with SF-268 CNS was more than 100 µM throughout. Further, the TGI in the test with A549 NSCLC and in the test with SNB-19 CNS was more than 100 µM throughout.

`CCCCCCCCCCCCCCCC(=O)NCC(OCC)OCC`: the TGI with UACC-257 melanoma, with NCI-H460 lung, with SF-295 CNS, with OVCAR-3 ovarian, in the test with SF-268 CNS and in the test on A549 NSCLC was more than 100 µM throughout. In addition, the TGI with HOP-92 NSCLC and in the test on SNB-19 CNS was more than 100 µM each time.

Consider `CCCNc1ncnc2c1cnn2C`, for which the TGI in the test on UACC-257 melanoma, with NCI-H460 lung, in the test on SF-295 CNS, in the test on OVCAR-3 ovarian, with A498 renal and with SF-268 CNS was more than 100 µM in each case. In addition, the TGI in the test with A549 NSCLC, with HOP-92 NSCLC and with SNB-19 CNS was more than 100 µM throughout.

`Cc1[nH]n(C(=O)c2ccc(Cl)cc2)c(=O)c1/C=C1\C(O)=CC(=O)c2ccccc21`: the TGI with UACC-257 melanoma, in the test on NCI-H460 lung, with SF-295 CNS, in the test on OVCAR-3 ovarian, in the test on A498 renal and in the test on SF-268 CNS was more than 100 µM throughout. In addition, the TGI in the test on A549 NSCLC, in the test on HOP-92 NSCLC and in the test on SNB-19 CNS was more than 100 µM in each case.

As for `Nc1nc(N)c(-c2ccccc2)c(C(=O)Nc2nccs2)n1`, the TGI in the test on UACC-257 melanoma, with NCI-H460 lung, in the test with SF-295 CNS, in the test on OVCAR-3 ovarian, with SF-268 CNS and in the test on A549 NSCLC was more than 100 µM each time. In addition, the TGI in the test with HOP-92 NSCLC and with SNB-19 CNS was more than 100 µM throughout.

Take `CCOC(=O)NC/C=C/CO`: the TGI with UACC-257 melanoma, in the test on NCI-H460 lung, in the test on A498 renal, in the test on SF-268 CNS, with A549 NSCLC and in the test on SNB-19 CNS was more than 100 µM throughout.

On to `CCOC(=O)/C(=C/c1ccc[nH]1)P(=O)(OCC)OCC`, for which the TGI in the test on UACC-257 melanoma, in the test with NCI-H460 lung, with SF-295 CNS, in the test on OVCAR-3 ovarian, with SF-268 CNS and in the test with A549 NSCLC was more than 100 µM each time. In addition, the TGI in the test with HOP-92 NSCLC and in the test on SNB-19 CNS was more than 100 µM throughout.

Regarding `CCOC(=O)c1c(/C=N\Nc2ccccc2)nc2ccccc2c1-c1ccccc1`, the TGI in the test with UACC-257 melanoma, in the test on NCI-H460 lung, with SF-295 CNS, with OVCAR-3 ovarian, in the test with A498 renal and in the test with SF-268 CNS was more than 100 µM throughout. Moreover, the TGI in the test with A549 NSCLC, in the test with HOP-92 NSCLC and with SNB-19 CNS was more than 100 µM throughout.

Take `Cc1c(C(=O)C/C(=N/NC(=O)CC#N)C(N)=O)[n+](=O)c2ccccc2n1[O-]`: the TGI with UACC-257 melanoma is more than 100 µM; in the test with NCI-H460 lung, more than 100 µM; with SF-295 CNS, more than 100 µM; in the test on OVCAR-3 ovarian, 61.8 µM; in the test with A498 renal, more than 100 µM; with SF-268 CNS, more than 100 µM. Further, the TGI with A549 NSCLC, in the test on HOP-92 NSCLC and in the test on SNB-19 CNS was more than 100 µM throughout.

Consider `Nc1ccc2ncc(Nc3ccc(Cl)c(Cl)c3)nc2c1`, for which the TGI in the test with UACC-257 melanoma is 54.6 µM; in the test with NCI-H460 lung, more than 100 µM; in the test on SF-295 CNS, 49.9 µM; in the test with OVCAR-3 ovarian it was 40.1 µM; in the test on SF-268 CNS, more than 100 µM; in the test with A549 NSCLC it was more than 100 µM. Moreover, the TGI in the test on HOP-92 NSCLC turned out to be 52.3 µM; in the test on SNB-19 CNS, 81.4 µM.

(Values after PubChem BioAssay (NCI).)
